In experiment [1] the target is T1, Human pancreatic α-amylase (HPA) (Homo sapiens, UniProt P04746).
T1 sequence (P04746 16-511): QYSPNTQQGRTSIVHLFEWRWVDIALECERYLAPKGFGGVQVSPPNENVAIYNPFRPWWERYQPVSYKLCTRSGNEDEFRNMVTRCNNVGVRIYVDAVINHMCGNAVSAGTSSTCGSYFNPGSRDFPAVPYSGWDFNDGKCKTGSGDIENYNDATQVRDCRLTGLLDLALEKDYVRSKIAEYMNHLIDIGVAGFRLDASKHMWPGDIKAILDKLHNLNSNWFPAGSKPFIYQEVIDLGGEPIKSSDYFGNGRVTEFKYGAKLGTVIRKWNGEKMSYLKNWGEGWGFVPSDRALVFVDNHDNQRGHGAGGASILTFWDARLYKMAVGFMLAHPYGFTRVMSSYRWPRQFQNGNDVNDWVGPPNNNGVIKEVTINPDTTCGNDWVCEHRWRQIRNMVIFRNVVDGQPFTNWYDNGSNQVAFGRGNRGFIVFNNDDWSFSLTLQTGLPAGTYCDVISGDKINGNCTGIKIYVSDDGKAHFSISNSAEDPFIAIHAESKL
Briefly: biochemical.

Experiment [2] has as its target T1, Human pancreatic α-amylase (HPA). The following applies: relative to M09.
Experiment [3] concerns the target Homo sapiens maltase-glucoamylase (Homo sapiens, UniProt O43451). Briefly: Specificity analysis of M10: maltase-glucoamylase. Type of experiment: biochemical. The settings on record: read-out: M10 IC50; 37 °C, pH 7, PNP α-Glc.
Experiment [4] addresses H. sapiens C-term sucrase-isomaltase (Homo sapiens, UniProt P14410). Briefly: Specificity analysis: C-term sucrase-isomaltase. The following applies: read-out: M10 IC50; 37 °C, pH 7, PNP α-Glc. It counts as biochemical.
Experiment [5] has as its target T2, Agrobacterium β-glucosidase (Agrobacterium sp., UniProt P12614).
T2 sequence (P12614 1-459): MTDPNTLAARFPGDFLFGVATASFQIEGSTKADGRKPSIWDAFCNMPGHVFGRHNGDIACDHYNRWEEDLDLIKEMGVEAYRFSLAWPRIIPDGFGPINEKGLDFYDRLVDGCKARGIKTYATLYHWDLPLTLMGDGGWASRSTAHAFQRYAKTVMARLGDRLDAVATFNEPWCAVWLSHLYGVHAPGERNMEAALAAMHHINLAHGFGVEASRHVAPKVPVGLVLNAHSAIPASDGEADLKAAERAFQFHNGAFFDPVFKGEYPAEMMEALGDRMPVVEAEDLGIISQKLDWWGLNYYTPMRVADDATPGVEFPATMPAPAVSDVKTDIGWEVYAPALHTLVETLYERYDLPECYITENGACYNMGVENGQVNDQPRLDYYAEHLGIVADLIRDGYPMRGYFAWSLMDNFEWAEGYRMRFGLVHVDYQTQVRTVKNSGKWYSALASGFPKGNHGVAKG
Briefly: Specificity analysis of M10: Agrobacterium β-glucosidase. Type of experiment: biochemical.

Experiment [6] addresses Green coffee bean α-galactosidase (Coffea arabica, UniProt Q42656). Briefly: Specificity analysis of M10: green coffee bean α-galactosidase. It counts as biochemical. The settings on record: read-out: M10 IC50; 37 °C, pH 7.
The next experiment has as its target T3, Jack bean α-mannosidase (Canavalia ensiformis, UniProt C0HJB3).
T3 sequence (C0HJB3 1-981): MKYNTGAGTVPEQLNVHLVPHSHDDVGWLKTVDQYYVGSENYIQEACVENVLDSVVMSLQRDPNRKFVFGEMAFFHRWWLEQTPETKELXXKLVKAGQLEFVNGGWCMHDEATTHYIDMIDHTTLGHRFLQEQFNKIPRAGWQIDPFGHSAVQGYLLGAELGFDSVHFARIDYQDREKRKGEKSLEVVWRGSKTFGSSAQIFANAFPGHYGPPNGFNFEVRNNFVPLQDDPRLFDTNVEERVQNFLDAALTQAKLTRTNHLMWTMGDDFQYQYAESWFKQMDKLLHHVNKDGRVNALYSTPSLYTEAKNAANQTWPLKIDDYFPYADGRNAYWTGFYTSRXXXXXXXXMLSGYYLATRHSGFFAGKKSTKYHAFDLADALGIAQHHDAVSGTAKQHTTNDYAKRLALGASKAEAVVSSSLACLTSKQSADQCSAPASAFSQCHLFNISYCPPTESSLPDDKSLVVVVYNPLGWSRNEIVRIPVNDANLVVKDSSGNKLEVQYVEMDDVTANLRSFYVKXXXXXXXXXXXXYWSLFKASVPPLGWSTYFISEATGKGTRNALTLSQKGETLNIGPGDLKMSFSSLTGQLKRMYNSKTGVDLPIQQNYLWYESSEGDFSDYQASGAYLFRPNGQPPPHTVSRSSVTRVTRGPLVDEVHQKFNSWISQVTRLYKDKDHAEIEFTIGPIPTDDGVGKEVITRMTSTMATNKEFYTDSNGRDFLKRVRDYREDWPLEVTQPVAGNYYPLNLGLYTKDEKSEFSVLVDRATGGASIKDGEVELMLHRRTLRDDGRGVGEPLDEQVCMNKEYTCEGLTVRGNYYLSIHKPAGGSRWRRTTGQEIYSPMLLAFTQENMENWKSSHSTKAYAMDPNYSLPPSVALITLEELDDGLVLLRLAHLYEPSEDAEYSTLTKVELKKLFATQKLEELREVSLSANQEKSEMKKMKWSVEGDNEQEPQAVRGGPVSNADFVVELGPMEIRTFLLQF
Nature of the experiment: Specificity analysis of M10: Jack bean α-mannosidase. Type of experiment: biochemical. The following applies: read-out: M10 IC50; 37 °C, pH 7.

The target in another experiment is E. coli β-galactosidase (Escherichia coli, UniProt P00722). Nature of the experiment: Specificity analysis of M10: E. coli β-galactosidase. The settings on record: read-out: M10 IC50; 37 °C, pH 7, 1.0 mM MgCl2.
Chain of E. coli β-galactosidase (P00722 2-1024 limits assumed): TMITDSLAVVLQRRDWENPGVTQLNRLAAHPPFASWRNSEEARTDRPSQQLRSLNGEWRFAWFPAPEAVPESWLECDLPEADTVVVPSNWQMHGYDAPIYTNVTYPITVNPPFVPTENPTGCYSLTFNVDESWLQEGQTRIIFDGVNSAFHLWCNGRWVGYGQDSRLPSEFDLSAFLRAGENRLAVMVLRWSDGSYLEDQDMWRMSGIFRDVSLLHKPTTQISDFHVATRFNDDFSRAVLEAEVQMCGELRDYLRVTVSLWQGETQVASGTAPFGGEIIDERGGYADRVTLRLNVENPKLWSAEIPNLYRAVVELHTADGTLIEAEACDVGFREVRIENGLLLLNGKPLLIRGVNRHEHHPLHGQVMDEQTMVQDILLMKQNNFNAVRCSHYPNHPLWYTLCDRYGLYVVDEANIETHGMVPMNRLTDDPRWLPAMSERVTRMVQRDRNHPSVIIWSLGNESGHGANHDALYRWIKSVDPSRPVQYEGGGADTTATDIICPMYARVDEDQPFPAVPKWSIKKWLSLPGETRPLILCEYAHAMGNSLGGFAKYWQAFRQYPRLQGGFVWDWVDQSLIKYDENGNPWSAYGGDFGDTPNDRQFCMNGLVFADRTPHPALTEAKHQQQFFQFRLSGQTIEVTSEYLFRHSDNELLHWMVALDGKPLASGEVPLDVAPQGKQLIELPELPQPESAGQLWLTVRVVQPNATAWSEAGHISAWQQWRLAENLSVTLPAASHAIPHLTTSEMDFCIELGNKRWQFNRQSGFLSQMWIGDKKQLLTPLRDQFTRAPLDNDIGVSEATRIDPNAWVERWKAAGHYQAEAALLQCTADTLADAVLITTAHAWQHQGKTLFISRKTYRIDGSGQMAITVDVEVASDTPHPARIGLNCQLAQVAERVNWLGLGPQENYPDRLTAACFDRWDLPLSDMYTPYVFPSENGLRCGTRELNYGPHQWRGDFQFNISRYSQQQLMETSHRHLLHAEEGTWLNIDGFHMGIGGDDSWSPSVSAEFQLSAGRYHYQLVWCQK

Chain of Green coffee bean α-galactosidase (Q42656 16-378): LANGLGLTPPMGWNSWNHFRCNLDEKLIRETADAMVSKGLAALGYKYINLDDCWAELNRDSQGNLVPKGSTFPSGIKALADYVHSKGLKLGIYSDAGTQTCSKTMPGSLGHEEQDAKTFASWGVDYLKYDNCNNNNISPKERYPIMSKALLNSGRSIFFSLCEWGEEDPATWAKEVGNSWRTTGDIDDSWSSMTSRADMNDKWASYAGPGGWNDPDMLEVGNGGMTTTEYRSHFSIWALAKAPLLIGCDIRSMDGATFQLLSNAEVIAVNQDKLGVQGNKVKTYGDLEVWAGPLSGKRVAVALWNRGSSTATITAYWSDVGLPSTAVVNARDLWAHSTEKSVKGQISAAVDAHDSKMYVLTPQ
Chain of H. sapiens C-term sucrase-isomaltase (P14410 1008-1827 limits assumed): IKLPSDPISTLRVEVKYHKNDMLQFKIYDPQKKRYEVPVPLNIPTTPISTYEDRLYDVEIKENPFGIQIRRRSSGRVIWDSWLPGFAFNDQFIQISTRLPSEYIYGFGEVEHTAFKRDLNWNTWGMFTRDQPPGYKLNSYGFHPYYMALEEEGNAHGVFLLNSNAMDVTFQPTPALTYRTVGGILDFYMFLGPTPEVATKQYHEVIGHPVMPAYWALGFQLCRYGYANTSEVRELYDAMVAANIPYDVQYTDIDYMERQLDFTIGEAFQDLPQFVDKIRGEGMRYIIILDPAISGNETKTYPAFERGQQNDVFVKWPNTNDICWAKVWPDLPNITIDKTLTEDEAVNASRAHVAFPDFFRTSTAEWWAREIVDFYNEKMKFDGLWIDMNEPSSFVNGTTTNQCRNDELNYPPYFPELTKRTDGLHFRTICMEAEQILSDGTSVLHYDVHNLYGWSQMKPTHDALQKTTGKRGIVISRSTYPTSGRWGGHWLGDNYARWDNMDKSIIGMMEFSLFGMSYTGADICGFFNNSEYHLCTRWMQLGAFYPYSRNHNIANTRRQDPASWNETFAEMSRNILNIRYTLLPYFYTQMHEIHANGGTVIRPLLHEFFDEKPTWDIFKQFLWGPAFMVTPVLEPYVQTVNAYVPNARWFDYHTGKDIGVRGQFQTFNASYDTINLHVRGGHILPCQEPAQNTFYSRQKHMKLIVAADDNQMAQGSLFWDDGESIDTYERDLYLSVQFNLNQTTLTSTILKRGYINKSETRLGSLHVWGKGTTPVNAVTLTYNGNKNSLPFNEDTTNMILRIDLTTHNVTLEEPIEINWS

As for `O=C(/C=C/c1ccc(O)c(O)c1)NCCCOc1c(-c2ccc(O)c(O)c2)oc2cc(O)cc(O)c2c1=O` [M03], the Ki in experiment [1] turned out to be 110 ± 10 µM.

For `O=C(/C=C/c1ccc(O)c(O)c1)N[C@@H](Cc1ccc(O)c(O)c1)C(=O)NCCCOc1c(-c2ccc(O)c(O)c2)oc2cc(O)cc(O)c2c1=O` [M11], the “Further contribution to the binding affinity” value in experiment [2] is given as approximately 2.5 kcal mol^–1. In experiment [1], this molecule came in with a Ki of 0.06 µM.

On to `O=C(/C=C/c1ccc(O)c(O)c1)N[C@@H](Cc1ccc(O)cc1)C(=O)NCCCOc1c(-c2ccc(O)c(O)c2)oc2cc(O)cc(O)c2c1=O` [M10], for which the IC50 in experiment [3] was more than 7 µM; in experiment [4] it was more than 7 µM; in experiment [5], 35.4 ± 5.7 µM; in experiment [6], more than 7 µM; at Jack bean α-mannosidase, more than 7 µM; on E. coli β-galactosidase, more than 7 µM. Further, the “Further contribution to the binding affinity” value in experiment [2] was approximately 2.5 kcal mol^–1.

In turn, `O=C(/C=C/c1ccc(O)c(O)c1)NCC(=O)NCCCOc1c(-c2ccc(O)c(O)c2)oc2cc(O)cc(O)c2c1=O` [M05] came in with a Ki in experiment [1] of 60 ± 10 µM.

The record behind these values is article PMC7069248 (Chemical Science, 2019).
